Assay results from patent US8795962B2, “Expression vectors based on modified ribosomal protein promoters and uses thereof in post-transcriptional assessment” (King Faisal Specialist Hospital and Research Center, priority 2008, dated 2014).
“Also recorded” adds a separate entry of the source.

Legend:
[1] = test system: control RPS30-3′UTR reporter; test: RPS30I-M1 EGFP reporter with control stable 3′UTR, post-transcriptional induction (FIG. 3); type: cell-based, human; conditions: HEK293 cells, okadaic acid 100 nM
Description: (§1) Selective for post-transcriptional regulation in the RPS30I-M linked-reporter system. HEK293 cells in 96-well plates were transfected with 150 ng of EGFP reporter vectors that are under the transcriptional control of the ribosomal protein RPS30I-M1. The EGFP reporter contains either control stable 3′UTR or 3′UTR which contain 200 bases of IL-8 3′UTR sequences known to contain mRNA destabilization elements, AU-rich elements. After approximately 20 hr, the cells were treated with the following compounds: okadaic acid (100 nM) or IL-α (3 ng/ml) to induce post-transcriptional induction, if any. High resolution images were obtained automatically by BD high-content imager. Quantitation was performed with our in-house ProXcell imaging algorithm.
The RPS30I-M1 with control 3′UTR, RPS30I-M1 with IL-8 3′UTR, and RPS30I-M1 with TNF-α 3′UTR vectors were tested for use to assess post-transcriptional regulation. Transfected cells were stimulated with the following compounds, IL-α or okadaic acid. Any compound or modulators such as protein, expression vector, or small inhibitory RNA, or any other RNA vector can be tested for the post-transcriptional effects, i.e., induction or repression.

[2] = test system: EGFP reporter vectors under the transcriptional control of the ribosomal protein RPS30, RPS23I-M, or RPS30I-M1 sequences; test: EGFP reporter under ribosomal protein promoters with control stable 3′UTR, treated with inducers (FIG. 1B); type: cell-based, human; conditions: HEK293 cells, okadaic acid 100 nM or TNF-α 10 ng/ml, added about 20 hr after transfection
Description: (§2) B HEK293 cells in 96-well plates were transfected with 150 ng of EGFP reporter vectors that are under the transcriptional control of the ribosomal protein RPS30, RPS23I-M, or RPS30I-M1 sequences. The EGFP reporter contains control stable 3′UTR. After approximately 20 hr, the cells were treated with the following compounds: okadaic acid (100 nM) or TNF-α (10 ng/ml) to induce post-transcriptional induction, if any. High resolution images were obtained automatically by BD high-content imager. Quantitation was performed with our in-house ProXcell imaging algorithm.

[3] = test system: RPS30I-M1-IL-8 3′UTR reporter; test: RPS30I-M1 EGFP reporter with IL-8 3′UTR (AU-rich elements), post-transcriptional induction (FIG. 3); type: cell-based, human; conditions: HEK293 cells, 3′UTR with 200 bases of IL-8 3′UTR; okadaic acid 100 nM
Description: as §1
The AU-rich regions, approximately 200 bases, of TNF-α and IL-8 3′UTR were cloned into the vector. Briefly, a 237 bp region (972-1209 nt: NM_000584, SEQ ID NO. 9) that belongs to the 1250 bp IL-8 3′UTR or 250 bases from TNF-α 3′UTR: (1200-1450 bp, NM_000594, SEQ ID NO. 10) were amplified by RT-PCR using specific primers that contains BamH1 and XbaI restriction sites. The PCR products were cut by BamH I and Xba I sequentially and followed by phenol extraction and ethanol precipitation. The purified cut PCR products were ligated into the EGFP expression vector that has bovine growth hormone 3′UTR that has BamH1 and XbaI sites. […]

[4] = test system: EGFP reporter vector under the transcriptional control of the CMV promoter; test: EGFP reporter under CMV promoter, treated with inducers (FIG. 2); type: cell-based; conditions: HEK293 cells, TNF-α 10 ng/ml
Description: as §2, with “HEK293” for “B HEK293”, “CMV” for “ribosomal protein RPS30, RPS23I-M,”, “SV40 promoter.” for “RPS30I-M1 sequences. The EGFP reporter contains control stable 3′UTR.”, “induction,” for “induction, if any.”, “with” for “with our in-house”

[5] = test system: EGFP reporter vector under the transcriptional control of the SV40 promoter; test: EGFP reporter under SV40 promoter, treated with inducers (FIG. 2); type: cell-based; conditions: HEK293 cells, TNF-α 10 ng/ml
Description: as §2, with “HEK293” for “B HEK293”, “CMV” for “ribosomal protein RPS30, RPS23I-M,”, “SV40 promoter.” for “RPS30I-M1 sequences. The EGFP reporter contains control stable 3′UTR.”, “induction,” for “induction, if any.”, “with” for “with our in-house”

| Compound | post-transcriptional induction of EGFP reporter [1] | induction of EGFP reporter fluorescence [2] | induction of EGFP reporter fluorescence ([2]; listed as okdadaic acid) | post-transcriptional induction of EGFP reporter [3] | transcriptional induction of EGFP reporter [4] | transcriptional induction of EGFP reporter [5] |
| --- | --- | --- | --- | --- | --- | --- |
| C=C1[C@@H](O)[C@@H]2O[C@]3(CC[C@H](/C=C/[C@@H](C)[C@@H]4CC(C)=C[C@@]5(O[C@H](C[C@@](C)(O)C(=O)O)CC[C@H]5O)O4)O3)CC[C@H]2O[C@@H]1[C@@H](O)C[C@H](C)[C@H]1O[C@@]2(CCCCO2)CC[C@H]1C [okadaic acid] | not | not transcriptionally inducible | no induction | significantly increases | – | – |
| TNF-α | – | no induction; also recorded: not transcriptionally inducible | – | – | respond to transcriptional induction | respond to transcriptional induction |
